Reference: US8168651B2, “Protein kinase modulators” (Cylene Pharmaceuticals, Inc., priority 2008, dated 2012)
Read-outs that look alike come from different tables or passages of the source.

Experiments:
MV-4-11 [1] = test: Cell proliferation modulatory activity, MV-4-11; type: cell-based; details: Homo sapiens, MV4-11
[2] = tested on: HCT-116 human colorectal carcinoma cells; test: Cell-proliferation assay using Alamar Blue dye; type: cell-based; details: Homo sapiens;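 note: cells exposed to compound for about 4 days, then Alamar Blue added and dye fluorescence read after about 4 h, compared with medium-only control wells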
K-562 [3] = test: Cell proliferation modulatory activity, K-562; type: cell-based; details: Homo sapiens, K562
recombinant human PIM1 = recombinant human PIM1 (Homo sapiens (Human), UniProt P11309); test: PIM-1 kinase activity in cell-free in vitro assay; type: biochemical; details: for inhibition at 0.5 µM: 500 nM compound, read-out: PIM-1: % inh 500 nM
Sequence of recombinant human PIM1 (P11309 whole entry): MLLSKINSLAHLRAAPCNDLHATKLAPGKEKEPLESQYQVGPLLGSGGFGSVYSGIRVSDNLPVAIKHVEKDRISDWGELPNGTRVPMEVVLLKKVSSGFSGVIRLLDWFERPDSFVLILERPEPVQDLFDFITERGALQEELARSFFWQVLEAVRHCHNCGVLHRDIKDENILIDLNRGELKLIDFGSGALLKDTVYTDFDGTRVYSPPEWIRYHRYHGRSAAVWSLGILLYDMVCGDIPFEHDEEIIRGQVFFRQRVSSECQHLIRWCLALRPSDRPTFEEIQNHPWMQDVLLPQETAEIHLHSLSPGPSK

Flt3 = Flt3 (Homo sapiens (Human), UniProt P36888); test: FLT-3 kinase activity in cell free in vitro assay; type: biochemical; details: read-out: FLT-3
Sequence of Flt3 (P36888 27-993): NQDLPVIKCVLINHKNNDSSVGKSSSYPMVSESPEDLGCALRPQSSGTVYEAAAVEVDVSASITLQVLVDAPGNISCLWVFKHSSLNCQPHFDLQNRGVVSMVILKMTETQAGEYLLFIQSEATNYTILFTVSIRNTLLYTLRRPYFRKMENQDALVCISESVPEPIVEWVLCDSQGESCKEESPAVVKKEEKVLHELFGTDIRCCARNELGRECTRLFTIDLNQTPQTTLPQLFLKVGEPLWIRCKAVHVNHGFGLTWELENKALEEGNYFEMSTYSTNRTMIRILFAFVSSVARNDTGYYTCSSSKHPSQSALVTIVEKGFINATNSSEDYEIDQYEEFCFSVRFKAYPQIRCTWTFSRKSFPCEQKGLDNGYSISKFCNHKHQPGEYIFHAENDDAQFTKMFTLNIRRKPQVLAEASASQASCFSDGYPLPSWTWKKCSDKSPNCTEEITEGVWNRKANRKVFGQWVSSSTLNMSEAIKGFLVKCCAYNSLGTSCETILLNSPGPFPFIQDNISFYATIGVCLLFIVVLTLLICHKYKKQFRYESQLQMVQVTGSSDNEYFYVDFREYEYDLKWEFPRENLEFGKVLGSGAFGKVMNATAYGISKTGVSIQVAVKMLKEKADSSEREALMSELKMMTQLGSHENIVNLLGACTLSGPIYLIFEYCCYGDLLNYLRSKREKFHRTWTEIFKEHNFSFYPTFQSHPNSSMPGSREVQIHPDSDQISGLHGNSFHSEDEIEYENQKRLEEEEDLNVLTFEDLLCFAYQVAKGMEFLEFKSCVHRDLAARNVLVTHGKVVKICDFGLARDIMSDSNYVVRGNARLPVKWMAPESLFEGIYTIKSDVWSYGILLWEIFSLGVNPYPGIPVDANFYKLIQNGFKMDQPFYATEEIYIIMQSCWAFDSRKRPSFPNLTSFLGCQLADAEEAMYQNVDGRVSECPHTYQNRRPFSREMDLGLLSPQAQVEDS

recombinant human CK2 = recombinant human CK2 (Homo sapiens (Human), UniProt P68400); test: CK2 assay (cell-free, 33P-ATP filter plate); type: biochemical; details: for inhibition at 0.5 µM: 500 nM compound, read-out: CK2: % inh 500 nM; for IC50: 15 um ATP, read-out: CK2 (15 um ATP) IC50
Sequence of recombinant human CK2 (P68400 whole entry): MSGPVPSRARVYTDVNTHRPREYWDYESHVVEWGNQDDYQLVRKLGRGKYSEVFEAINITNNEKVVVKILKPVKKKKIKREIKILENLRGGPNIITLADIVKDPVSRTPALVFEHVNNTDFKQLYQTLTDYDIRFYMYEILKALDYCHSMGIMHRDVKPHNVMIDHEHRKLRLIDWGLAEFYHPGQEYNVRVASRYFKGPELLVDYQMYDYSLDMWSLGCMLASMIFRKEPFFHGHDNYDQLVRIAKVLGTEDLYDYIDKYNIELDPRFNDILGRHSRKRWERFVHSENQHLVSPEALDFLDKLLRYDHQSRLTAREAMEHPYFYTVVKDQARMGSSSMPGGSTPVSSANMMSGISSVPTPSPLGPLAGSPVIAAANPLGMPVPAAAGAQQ
Sequence of recombinant human CK2 (P67870 whole entry partner): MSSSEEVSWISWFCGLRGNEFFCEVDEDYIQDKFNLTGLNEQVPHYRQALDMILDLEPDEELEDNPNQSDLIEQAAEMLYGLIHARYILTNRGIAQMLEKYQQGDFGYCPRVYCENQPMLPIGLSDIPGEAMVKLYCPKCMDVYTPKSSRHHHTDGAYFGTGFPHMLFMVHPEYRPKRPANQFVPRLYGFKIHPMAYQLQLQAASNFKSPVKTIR

MV-4-11 [4] = test: Cell proliferation modulatory activity, MV-4-11; type: cell-based; details: Homo sapiens, MV4-11; remark: listed apart in the source
K-562 [5] = test: Cell proliferation modulatory activity, K-562; type: cell-based; details: Homo sapiens, K562; remark: listed apart in the source
Jurkat = test: Cell proliferation modulatory activity, Jurkat; type: cell-based; details: Homo sapiens
[6] = HCT-116, read-out: HCT-116 (uM), cell proliferation modulatory activity, HCT-116, first column
[7] = HCT-116, read-out: HCT-116 (uM), cell proliferation modulatory activity, HCT-116, second column
[8] = HCT-116, HCT-116, second HCT-116 column (c8), read-out: HCT-116 (uM), cell proliferation modulatory activity

| Structure (SMILES) | IC50 (MV-4-11 [1]) [µM] | IC50 (K-562 [3]) [µM] | inhibition at 0.5 µM (recombinant human PIM1; cell-free) [%] | IC50 (recombinant human PIM1; cell-free) [nM] | IC50 (MV-4-11 [4]) [µM] | IC50 (K-562 [5]) [µM] | IC50 (Flt3; cell-free assay) [nM] | inhibition at 0.5 µM (recombinant human PIM1; cell-free assay) [%] | IC50 [2, 8] [µM] | other results |
| --- | --- | --- | --- | --- | --- | --- | --- | --- | --- | --- |
| CN(C)CCNc1nc2cc(C(=O)O)ccc2c2sccc12 | > 10 | > 10 | 83.4 |  |  |  |  |  |  | IC50 [2, 6]: 10 µM |
| O=C(O)c1ccc2c(c1)nc(NCCN1CCCC1)c1ccsc12 | > 10 | > 10 | 67.2 | 244 |  |  |  |  |  | IC50 [2, 6]: 10 µM |
| c1ccc(Nc2nc3cc(-c4nnn[nH]4)ccc3c3sccc23)cc1 | 1.09 | > 10 | 70.9 | 262 |  |  |  |  |  | IC50 [2, 6]: 10 µM |
| CN(c1ccccc1)c1nc2cc(C(=O)O)ccc2c2sccc12 | > 10 | > 10 | 61.4 | 404 |  |  |  |  |  | IC50 [2, 6]: 10 µM |
| O=C(O)c1ccc2c(c1)nc(Nc1ccc(F)c(Cl)c1)c1ccsc12 | 0.455 | > 10 | 80.8 | 257 |  |  |  |  |  | IC50 [2, 6]: 10 µM |
| O=C(O)c1ccc2c(c1)nc(Nc1ccc(Cl)cc1)c1ccsc12 | 0.258 | > 10 | 69.1 | 289 |  |  |  |  |  | IC50 [2, 6]: 10 µM |
| CN(C)CCNc1nc2cc(-c3nnn[nH]3)ccc2c2sccc12 | > 10 | > 10 | 92.9 | 47 |  |  |  |  |  | IC50 [2, 6]: 10 µM; IC50 [2, 7]: > 10 µM |
| Fc1ccc(Nc2nc3cc(-c4nnn[nH]4)ccc3c3sccc23)cc1 | 4.53 | > 10 | 74.3 | 174 |  |  |  |  |  | IC50 [2, 6]: 10 µM |
| CN(C)CCNc1nc2cc(C(=O)O)ccc2c2cnccc12 | > 10 | > 10 | 63.6 | 242 |  |  |  |  |  |  |
| OCc1cccc(Nc2nc3cc(-c4nnn[nH]4)ccc3c3sccc23)c1 | 0.609 | > 10 | 87.6 | 162 |  |  |  |  |  |  |
| NS(=O)(=O)c1cccc(Nc2nc3cc(-c4nnn[nH]4)ccc3c3sccc23)c1 | > 10 | > 10 | 83.9 | 88 |  |  |  |  |  | IC50 [2, 7]: 10 µM |
| Brc1cccc(Nc2nc3cc(-c4nnn[nH]4)ccc3c3sccc23)c1 | 0.549 | > 10 | 65.9 | 220 |  |  |  |  |  | IC50 [2, 7]: > 10 µM |
| Fc1cccc(Nc2nc3cc(-c4nnn[nH]4)ccc3c3sccc23)c1 | 0.525 | > 10 | 76.6 | 138 |  |  |  |  |  | IC50 (Flt3; cell-free): > 400 nM |
| N#Cc1cccc(Nc2nc3cc(C(=O)O)ccc3c3sccc23)c1 | 0.226 | > 10 | 71.4 | 213 |  |  |  |  |  |  |
| CN(C)CCNC(=O)Cc1cccc(Nc2nc3cc(C(=O)O)ccc3c3sccc23)c1 | > 10 | > 10 | 69.2 | 283 |  |  |  |  |  | inhibition at 0.5 µM (recombinant human CK2; cell-free): 53.3%; IC50 ([2]; HCT-116, HCT-116, second column, read-out: HCT-116 (uM), cell proliferation modulatory activity): > 10 µM |
| CNS(=O)(=O)c1cccc(Nc2nc3cc(C(=O)O)ccc3c3sccc23)c1 | > 10 | > 10 | 82.8 | 159 |  |  |  |  |  | IC50 [2, 7]: > 10 µM |
| O=C(O)c1ccc2c(c1)nc(Nc1cccc(C(F)(F)F)c1)c1ccsc12 | > 10 | > 10 | 74.7 | 197 |  |  |  |  |  | IC50 [2, 7]: > 10 µM |
| O=C(O)c1ccc2c(c1)nc(Nc1ccc(F)c(F)c1)c1ccsc12 | 0.658 | > 10 | 85.7 | 239 |  |  |  |  |  | IC50 [2, 7]: 0.832 µM |
| Clc1cccc(Nc2nc3cc(-c4nnn[nH]4)ccc3c3cnccc23)c1 | 0.032 | 8.2 | 48.6 | 863 |  |  |  |  |  | IC50 (Flt3; cell-free): 305 nM |
| O=C(O)c1ccc2c(c1)nc(Nc1cc(F)cc(Cl)c1)c1ccsc12 | 0.745 | > 10 | 90 | 299 |  |  |  |  |  | IC50 [2, 7]: > 10 µM |
| O=C(O)c1ccc2c(c1)nc(Nc1cc(F)cc(F)c1)c1ccncc12 | > 10 | 3.26 | 92.4 | 111 |  |  |  |  |  | IC50 [2, 7]: 4.33 µM |
| N#Cc1cc(F)cc(Nc2nc3cc(C(=O)O)ccc3c3sccc23)c1 | 1.46 | > 10 | 87 | 252 |  |  |  |  |  | IC50 [2, 7]: > 10 µM |
| Fc1cc(F)cc(Nc2nc3cc(-c4nnn[nH]4)ccc3c3sccc23)c1 | 2.2 | > 10 | 86.9 | 414 |  |  |  |  |  | IC50 [2, 7]: > 10 µM |
| NC(=O)c1ccc2c(c1)nc(Nc1cccc(C(F)(F)F)c1)c1nc(NC3CC3)ncc12 |  |  |  |  | 0.149 | 0.157 | 343 | 12.5 |  | IC50 (Jurkat): 1.16 µM |
| CC(C)OC(=O)Nc1ccc2c(c1)nc(Nc1cccc(C(F)(F)F)c1)c1nc(NC3CC3)ncc12 |  |  |  |  | 0.108 | 0.061 | > 400 | 10.1 |  | IC50 (Jurkat): 1.16 µM |
| O=C(O)c1ccc2c(c1)nc(NCCc1cccc(F)c1)c1ccncc12 [drawing 1560] | > 10 |  | 74 | 351 |  |  |  |  |  | IC50 [2, 7]: > 10 µM |

Continued, in another order:

| IC50 (MV-4-11 [1]) [µM] | IC50 (K-562 [3]) [µM] | inhibition at 0.5 µM (recombinant human PIM1; cell-free) [%] | IC50 (recombinant human PIM1; cell-free) [nM] | IC50 (MV-4-11 [4]) [µM] | IC50 (K-562 [5]) [µM] | IC50 (Flt3; cell-free assay) [nM] | inhibition at 0.5 µM (recombinant human PIM1; cell-free assay) [%] | IC50 [2, 8] [µM] | Structure (SMILES) | other results |
| --- | --- | --- | --- | --- | --- | --- | --- | --- | --- | --- |
| 6.45 | 4.01 | 21.9 | 1020 |  |  |  |  |  | O=C(O)c1ccc2c(c1)nc(Nc1ccccc1)c1ccncc12 |  |
| > 10 | 9.15 | 92.4 | 58 |  |  |  |  |  | N#Cc1cccc(Nc2nc3cc(C(=O)O)ccc3c3cnccc23)c1 | IC50 (Flt3; cell-free): 12 nM |
|  |  |  |  | 0.529 | 5.52 | 13 | 4.22 |  | OCc1ccc2c(c1)nc(Nc1cccc(Cl)c1)c1ccncc12 | IC50 ([2]; HCT-116, read-out: HCT-116 (uM), cell proliferation modulatory activity, HCT-116, second HCT-116 column (c8)): 4.28 µM |
|  |  |  |  | > 10 | > 10 | > 400 | 4.85 | 8.17 | CN(C)C(=O)c1ccc2c(c1)nc(Nc1cccc(Cl)c1)c1ccncc12 | IC50 (recombinant human CK2; cell-free assay): > 750 nM; IC50 (Jurkat): 1.51 µM |
|  |  |  |  | > 10 | > 10 | > 400 | -5.18 | > 10 | O=C(NC1CC1)c1ccc2c(c1)nc(Nc1cccc(Cl)c1)c1ccncc12 | IC50 (recombinant human CK2; cell-free assay): 487 nM; IC50 (Jurkat): 2.16 µM |
|  |  |  |  | 0.043 | > 10 | > 400 | -29.7 | > 10 | COCCNC(=O)c1ccc2c(c1)nc(Nc1cccc(Cl)c1)c1ccncc12 |  |
|  |  |  |  | 0.095 | > 10 | 331 | -29.4 | > 10 | O=C(NCc1ccccc1)c1ccc2c(c1)nc(Nc1cccc(Cl)c1)c1ccncc12 |  |
|  |  |  |  | > 10 | > 10 | > 400 | -28.4 | > 10 | CN1CCN(C(=O)c2ccc3c(c2)nc(Nc2cccc(Cl)c2)c2ccncc23)CC1 |  |
|  |  |  |  | 0.171 | > 10 | > 400 | -11.8 | 2.67 | CN1CCCN(C(=O)c2ccc3c(c2)nc(Nc2cccc(Cl)c2)c2ccncc23)CC1 |  |
|  |  |  |  | > 10 | > 10 | > 400 | -5.01 | > 10 | CC(=O)N1CCN(C(=O)c2ccc3c(c2)nc(Nc2cccc(Cl)c2)c2ccncc23)CC1 |  |
|  |  |  |  | > 10 | > 10 | > 400 | -6.62 | > 10 | O=C(Nc1nccs1)c1ccc2c(c1)nc(Nc1cccc(Cl)c1)c1ccncc12 |  |
|  |  |  |  | > 10 | > 10 | 362 | -19.8 | > 10 | Cc1cnc(CNC(=O)c2ccc3c(c2)nc(Nc2cccc(Cl)c2)c2ccncc23)cn1 |  |
|  |  |  |  | > 10 | > 10 | > 400 | -14.4 | > 10 | O=C(c1ccc2c(c1)nc(Nc1cccc(Cl)c1)c1ccncc12)N1CCOCC1 |  |
|  |  |  |  | 0.112 | > 10 | > 400 | -16.2 | > 10 | O=C(NCc1cccnc1)c1ccc2c(c1)nc(Nc1cccc(Cl)c1)c1ccncc12 |  |
|  |  |  |  | > 10 | > 10 | > 400 | -7.41 | 5.97 | CC(C)(C)OC(=O)N1CCN(C(=O)c2ccc3c(c2)nc(Nc2cccc(Cl)c2)c2ccncc23)CC1 |  |
|  |  |  |  | > 10 | > 10 | > 400 | -19.8 | 7.22 | NCCNC(=O)c1ccc2c(c1)nc(Nc1cccc(Cl)c1)c1ccncc12 | IC50 (Jurkat): 7.67 µM |
|  |  |  |  | 0.037 | 1.23 | 3 | -3.44 | 2.13 | NC(=O)c1ccc2c(c1)nc(Nc1cccc(Cl)c1)c1ccncc12 [drawing 1674] | inhibition at 0.5 µM (recombinant human CK2; cell-free assay): 91.2%; IC50 (recombinant human CK2; cell-free assay): 417 nM; IC50 (Jurkat): 0.91 µM |
